Legend:
TRPML1 = target: T1, TRPML1 (Homo sapiens, UniProt Q9GZU1); assay: Cellular TRPML1 assay (FLIPR, GCaMP6f calcium read-out); assay type: cell-based; details: HEKT-REx/GCaMP6f/TRPML1 cells, FLIPR TETRA, kinetic response over 300 seconds; read-out: TRPML1 FLIPR pEC50 (converted)
T1 construct: expressed in transfected cells; host or cells: HEK T-REx cells stably expressing GCaMP6f and TRPML1
Procedure, shortened: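 Read-out is GCaMP6f fluorescence over 300 s after compound addition in Ca2+-free Tyrode's buffer, final DMSO 0.5%, on FLIPR Tetra. Cells are HEK T-REx stably co-expressing the indicator and TRPML1, plated 24 h earlier in Optimem + 0.5% FBS and pre-incubated ~10 min at room temperature.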

TFEB = TFEB translocation assay (TFEB reporter in U2OS cells, imaging); assay type: cell-based; details: Homo sapiens; U2OS cell line with TFEB reporter, 2 hours incubation, nucleus to cytoplasm ratio, normalized to Torin-1; read-out: TFEB Translocation pEC50 (converted)
Method: Example B: TFEB Translocation Assay
Reporter TFEB: the reporter is fused to a sequence of monomeric red fluorescent protein.
The reporter TFEB have been stably expressed in U2OS cell line and used as read-out.
Experiments were performed in 384 MTP well format. Cells were seeded in 384-w at a density of 4000 cells/well in 20 μl/well complete growth medium without antibiotics. Twenty-four hours later, cells were treated with compounds and incubated for further 2 hours. Then the cells were imaged and assayed for the response to various compounds using the reporter for TFEB expressed in the cells as readout.
The experiments were performed in a 384-well format according to the following procedure: • 24 h after seeding, cell culture medium was carefully removed and replaced with 20 μl of Opti-MEM (30′ incubation at 37° C. before compound addition) • Then, cells were incubated with compounds diluted in Opti-MEM+0.015% Tween 80 at the desired concentration, with the reference molecule (agonist) Torin-1 at a top concentration of 1 μM (max signal), and with the other reference molecule (agonist) MLSA-5 at top concentration of 20 μM for 2 hours at 37° C. and 5% CO2. The final percentage of DMSO was 0.5% in all the conditions. • Staining of the nuclei was obtained by incubating the cells with 24 μM/well of Hoechst 3342 in standard Tyrode's buffer for 15 min at RT • Then the cells were fixed with PFA 4% for 30 min at RT • After three washes with standard Tyrode's buffer, samples were acquired by recording two fluorescence emission channels (DS-red and blue) at 20× magnification and with at least 3 fields of view per well in an Operetta CLS microscope (PerkinElmer). • Image analysis was performed by using Harmony software (PerkinElmer). The image analysis involved the following steps: flat-field illumination correction, nuclei segmentation, cytoplasm segmentation and calculation of intensity fluorescence in the cytosol and nuclei compartments. Measurements of signal intensity ratio (nucleus to cytoplasm) was used to obtain information on the effects of compounds on the TFEB translocation. • Data from image analysis measurements were finally loaded and analyzed for normalization and fitting procedures in Genedata Screener© software. Data Analysis
Feature: Mean translocation ratio (mean/well)
Data normalization: Stimulator—Neutral control
The GeneData Screener method we have used, normalizes the median of the Stimulator control wells (Torin-1) to 100% and the median of the Neutral control wells (DMSO) to 0% Activity[%]=100*(x−<Min>)/(<“Max”>−<Min>)

T1 sequence (Q9GZU1 whole entry): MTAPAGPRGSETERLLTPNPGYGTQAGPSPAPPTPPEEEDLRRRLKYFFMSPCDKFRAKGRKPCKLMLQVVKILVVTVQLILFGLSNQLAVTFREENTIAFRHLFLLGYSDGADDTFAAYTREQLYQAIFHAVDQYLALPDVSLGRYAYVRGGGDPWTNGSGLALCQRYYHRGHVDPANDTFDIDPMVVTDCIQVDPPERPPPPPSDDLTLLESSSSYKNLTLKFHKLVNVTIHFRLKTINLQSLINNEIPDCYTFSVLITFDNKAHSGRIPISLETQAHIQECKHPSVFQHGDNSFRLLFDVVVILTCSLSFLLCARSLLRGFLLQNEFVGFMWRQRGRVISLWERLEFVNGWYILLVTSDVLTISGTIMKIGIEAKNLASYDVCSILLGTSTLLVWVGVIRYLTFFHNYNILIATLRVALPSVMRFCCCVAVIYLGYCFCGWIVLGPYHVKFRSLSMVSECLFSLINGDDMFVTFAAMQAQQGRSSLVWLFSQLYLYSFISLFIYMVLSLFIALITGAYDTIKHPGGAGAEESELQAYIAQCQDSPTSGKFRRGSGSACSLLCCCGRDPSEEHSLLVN

Row | Compound | EC50 (TRPML1) [nM] | EC50 (TFEB) [nM]
1 | O=C(Nc1ccc(N2CCCCC2)c(F)c1)c1nc(N2CCC3(C2)CC(F)(F)C3)oc1CC(F)(F)F [Example 28, 2-(2,2-difluoro-6-azaspiro[3.4]octan-6-yl)-N-(3-fluoro-4-(piperidin-1-yl)phenyl)-5-(2,2,2-trifluoroethyl)oxazole-4-carboxamide] | 1000 to 10000 | 1000 to 10000
2 | O=C(Nc1ccc(N2CCCCC2)c(F)c1)c1nc(N2CC3(C2)CC(F)(F)C3)oc1CC(F)(F)F [Example 30, 2-{6,6-difluoro-2-azaspiro[3.3]heptan-2-yl}-N-[3-fluoro-4-(piperidin-1-yl)phenyl]-5-(2,2,2-trifluoroethyl)oxazole-4-carboxamide] | 1000 to 10000 | 1000 to 10000
3 | O=C(Nc1ccc(N2CCCCC2)c(F)c1)c1nc(N2CCCC2)oc1CC(F)(F)F [Example 32, N-(3-fluoro-4-(piperidin-1-yl)phenyl)-2-(pyrrolidin-1-yl)-5-(2,2,2-trifluoroethyl)oxazole-4-carboxamide] | 1000 to 10000 | 1000 to 10000
4 | O=C(Nc1ccc(N2CCCCC2)c(F)c1)c1nc(N2CCC3(COC3)C2)oc1CC(F)(F)F [Example 33, N-(3-fluoro-4-(piperidin-1-yl)phenyl)-2-(2-oxa-6-azaspiro[3.4]octan-6-yl)-5-(2,2,2-trifluoroethyl)oxazole-4-carboxamide] | 10 to 1000 | 1000 to 10000
5 | O=C(Nc1cc(F)c(OC2CC3C[C@H]3C2)c(F)c1)c1nc(N2CC3CCOC3C2)oc1CC(F)(F)F (stereo partly drawn) [Example 36, N-(4-{cis-bicyclo[3.1.0]hexan-3-yloxy}-3,5-difluorophenyl)-2-{hexahydro-5H-furo[2,3-c]pyrrol-5-yl}-5-(2,2,2-trifluoroethyl)oxazole-4-carboxamide] | 10 to 1000 | 10 to 1000
6 | O=C(Nc1cc(F)c(OC2CC3C[C@H]3C2)c(F)c1)c1nc(N2CCC3(CC3)C2)oc1CC(F)(F)F (stereo partly shown) [Example 38] | 10 to 1000 | 10 to 1000
7 | O=C(Nc1cc(F)c(O[C@@H]2C[C@@H]3C[C@@H]3C2)c(F)c1)c1nc(N2CCCC2)oc1CC(F)(F)F [Example 39, N-(4-(cis-bicyclo[3.1.0]hexan-3-yloxy)-3,5-difluorophenyl)-2-(pyrrolidin-1-yl)-5-(2,2,2-trifluoroethyl)oxazole-4-carboxamide] | 10 to 1000 | 10 to 1000
8 | O=C(Nc1ccc(OC2CCOC2)c(F)c1)c1nc(N2CCCC2)oc1CC(F)(F)F (stereo not shown) [Example 47, N-[3-fluoro-4-(oxolan-3-yloxy)phenyl]-2-(pyrrolidin-1-yl)-5-(2,2,2-trifluoroethyl)oxazol-4-carboxamide] | 1000 to 10000 | 1000 to 10000
9 | O=C(Nc1ccc(OC2CCCC2)c(F)c1)c1nc(N2CC3(C2)CC(F)(F)C3)oc1CC(F)(F)F [Example 48, N-[4-(cyclopentyloxy)-3-fluorophenyl]-2-{6,6-difluoro-2-azaspiro[3.3]heptan-2-yl}-5-(2,2,2-trifluoroethyl)oxazole-4-carboxamide] | 1000 to 10000 | 10 to 1000
10 | CC1CCC(Oc2ccc(NC(=O)c3nc(N4CCCC4)oc3CC(F)(F)F)cc2F)C1 (stereo not shown) [Example 50, N-(3-fluoro-4-((3-methylcyclopentyl)oxy)phenyl)-2-(pyrrolidin-1-yl)-5-(2,2,2-trifluoroethyl)oxazole-4-carboxamide] | 1000 to 10000 | 1000 to 10000
11 | CC1CCCN1c1nc(C(=O)Nc2ccc(OC3CCCC3)c(F)c2)c(CC(F)(F)F)o1 (stereo not shown) [Example 54, N-(4-(cyclopentyloxy)-3-fluorophenyl)-2-(2-methylpyrrolidin-1-yl)-5-(2,2,2-trifluoroethyl)oxazole-4-carboxamide] | 1000 to 10000 | 10000 to 100000

Further lines, with some results ahead:

Row | EC50 (TRPML1) [nM] | Compound | EC50 (TFEB) [nM]
12 | 10 to 1000 | O=C(Nc1ccc(OC2COCC2(F)F)c(F)c1)c1nc(N2CCCC2)oc1CC(F)(F)F (racemic) [Example 71, N-(4-((4,4-difluorotetrahydrofuran-3-yl)oxy)-3-fluorophenyl)-2-(pyrrolidin-1-yl)-5-(2,2,2-trifluoroethyl)oxazole-4-carboxamide] | 10 to 1000
13 | 1000 to 10000 | O=C(Nc1ccc(OC2CCCC2(F)F)c(F)c1)c1nc(N2CCC(CO)C2)oc1CC(F)(F)F (stereo not shown) [Example 3, N-(4-((2,2-difluorocyclopentyl)oxy)-3-fluorophenyl)-2-(3-(hydroxymethyl)pyrrolidin-1-yl)-5-(2,2,2-trifluoroethyl)oxazole-4-carboxamide] | 1000 to 10000
14 | 1000 to 10000 | CC1(C)CN(c2nc(C(=O)Nc3ccc(OC4CCCC4(F)F)c(F)c3)c(CC(F)(F)F)o2)CCO1 (stereo not shown) [Example 4, N-{4-[(2,2-difluorocyclopentyl)oxy]-3-fluorophenyl}-2-(2,2-dimethylmorpholin-4-yl)-5-(2,2,2-trifluoroethyl)-1,3-oxazole-4-carboxamide] | 10 to 1000
15 | 1000 to 10000 | O=C(Nc1ccc(OC2CCCC2(F)F)c(F)c1)c1nc(N2CCOCC2)oc1CC(F)(F)F (stereo not shown) [Example 6, N-(4-((2,2-difluorocyclopentyl)oxy)-3-fluorophenyl)-2-morpholino-5-(2,2,2-trifluoroethyl)oxazole-4-carboxamide] | 10 to 1000
16 | 1000 to 10000 | O=C(Nc1ccc(OC2CCCC2(F)F)c(F)c1)c1nc(N2CCC3(CCOC3)C2)oc1CC(F)(F)F (stereo not shown) [Example 13, N-(4-((2,2-difluorocyclopentyl)oxy)-3-fluorophenyl)-2-(2-oxa-7-azaspiro[4.4]nonan-7-yl)-5-(2,2,2-trifluoroethyl)oxazole-4-carboxamide] | 1000 to 10000
17 | 10 to 1000 | O=C(Nc1ccc(OC2CCCC2(F)F)c(F)c1)c1nc(N2CCC3(CCC3)C2)oc1CC(F)(F)F (stereo not shown) [Example 15, N-(4-((2,2-difluorocyclopentyl)oxy)-3-fluorophenyl)-2-(6-azaspiro[3.4]octan-6-yl)-5-(2,2,2-trifluoroethyl)oxazole-4-carboxamide] | 10 to 1000
18 | 10 to 1000 | O=C(Nc1ccc(OC2CCCC2(F)F)c(F)c1)c1nc(N2CC3(C2)CC(F)(F)C3)oc1CC(F)(F)F (stereo not shown) [Example 17, 2-(6,6-difluoro-2-azaspiro[3.3]heptan-2-yl)-N-(4-((2,2-difluorocyclopentyl)oxy)-3-fluorophenyl)-5-(2,2,2-trifluoroethyl)oxazole-4-carboxamide] | 10 to 1000
19 | 10 to 1000 | O=C(Nc1ccc(OC2CCCC2(F)F)c(F)c1)c1nc(N2CCC3(COC3)C2)oc1CC(F)(F)F (stereo not shown) [Example 19, N-{4-[(2,2-difluorocyclopentyl)oxy]-3-fluorophenyl}-2-{2-oxa-6-azaspiro[3.4]octan-6-yl}-5-(2,2,2-trifluoroethyl)oxazole-4-carboxamide] | 10 to 1000
20 | 10 to 1000 | CC1(C)CN(c2nc(C(=O)Nc3ccc(OC4CCCC4(F)F)c(F)c3)c(CC(F)(F)F)o2)C1 (stereo not shown) [Example 20, N-(4-((2,2-difluorocyclopentyl)oxy)-3-fluorophenyl)-2-(3,3-dimethylazetidin-1-yl)-5-(2,2,2-trifluoroethyl)oxazole-4-carboxamide] | 10 to 1000
21 | 10 to 1000 | O=C(Nc1ccc(OC2CCCC2(F)F)c(F)c1)c1nc(N2CCC3(CC3)C2)oc1CC(F)(F)F (stereo not shown) [Example 21, N-(4-((2,2-difluorocyclopentyl)oxy)-3-fluorophenyl)-2-(5-azaspiro[2.4]heptan-5-yl)-5-(2,2,2-trifluoroethyl)oxazole-4-carboxamide] | 10 to 1000
22 | 10 to 1000 | O=C(Nc1ccc(OC2CCCC2(F)F)c(F)c1)c1nc(N2CCCC2)oc1CC(F)(F)F (stereo not shown) [Example 22, N-{4-[(2,2-difluorocyclopentyl)oxy]-3-fluorophenyl}-2-(pyrrolidin-1-yl)-5-(2,2,2-trifluoroethyl)oxazole-4-carboxamide] | 10 to 1000
23 | 1000 to 10000 | O=C(Nc1ccc(N2CCCCC2)c(F)c1)c1nc(N2CCC3(CCOC3)C2)oc1CC(F)(F)F (stereo not shown) [Example 31, N-(3-fluoro-4-(piperidin-1-yl)phenyl)-2-(2-oxa-7-azaspiro[4.4]nonan-7-yl)-5-(2,2,2-trifluoroethyl)oxazole-4-carboxamide] | 1000 to 10000

Reference: patent US12098145B2 (Libra Therapeutics, Inc., priority 2022, dated 2024)
